What follows are compounds tested against T1, Tumor necrosis factor receptor superfamily member 16 (Homo sapiens) (UniProt P08138) (assay: Percent inhibition of [125I]- NGF binding to extracellular domain of p75 receptor at 10 uM).
T1 sequence (whole entry): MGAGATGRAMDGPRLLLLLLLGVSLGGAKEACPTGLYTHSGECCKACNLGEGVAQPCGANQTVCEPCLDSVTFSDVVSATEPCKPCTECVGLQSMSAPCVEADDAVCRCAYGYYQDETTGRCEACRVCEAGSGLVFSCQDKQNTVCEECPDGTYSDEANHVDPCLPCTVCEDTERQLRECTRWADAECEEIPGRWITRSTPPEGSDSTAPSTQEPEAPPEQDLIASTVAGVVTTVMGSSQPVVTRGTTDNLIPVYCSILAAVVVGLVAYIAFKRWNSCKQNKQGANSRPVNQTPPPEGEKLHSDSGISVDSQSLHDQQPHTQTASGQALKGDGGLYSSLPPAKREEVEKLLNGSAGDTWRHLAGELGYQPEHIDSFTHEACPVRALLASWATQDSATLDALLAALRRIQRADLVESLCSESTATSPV
Work on `COc1cc(C(=O)O)nc2ccc(NC(=O)c3ccc(C)cc3)cc12` yielded an inhibition of 29%. `Nc1ccc2c(O)cc(C(=O)O)nc2c1` showed an inhibition of 37%. For `COc1cc(C(=O)O)nc2ccc(N)cc12`, the inhibition was 28%. `Cc1ccc(C(=O)Nc2cccc3nc(C(=O)O)cc(O)c23)cc1` gave an inhibition of 38%. With `Nc1cccc2nc(C(=O)O)cc(O)c12` the inhibition was 50%.

What follows are compounds tested against T2, Tumor necrosis factor receptor superfamily member 16 (Homo sapiens, UniProt P08138) (assay: Inhibition of [125I]- NGF binding to extracellular domain of p75 receptor; IA=Inactive).
T2 sequence (P08138 whole entry): T1 sequence (whole entry)
With `O=C(O)c1ccc2nc(C(=O)O)cc(O)c2c1` the IC50 was “Not Active”. `O=C(O)c1cc(O)c2c(Cl)cc(Cl)cc2n1` was tested, and the IC50 was “Not Active”. With `O=C(O)c1ccc2c(O)cc(C(=O)O)nc2c1` the IC50 was “Not Active”. In the case of `O=C(O)c1cc(O)c2cc([N+](=O)[O-])ccc2n1`, the IC50 is reported as “Not Active”. For `Cn1c(C(=O)O)cc(=O)c2cc(N)ccc21`, the IC50 was “Not Active”. With `O=C(O)c1cc(O)c2c(C(=O)O)cccc2n1` the IC50 was “Not Active”. In the case of `Cc1ccc(C(=O)Nc2ccc3c(O)cc(C(=O)O)nc3c2)cc1`, the IC50 is reported as “Not Active”. For `NC(=O)c1ccc2nc(C(=O)O)cc(O)c2c1`, the IC50 was “Not Active”. In the case of `Cc1ccc(C(=O)Nc2ccc3nc(C(=O)O)cc(O)c3c2)cc1`, the IC50 is reported as “Not Active”. `Cc1ccc(C(=O)Nc2ccc3c(c2)c(=O)cc(C(=O)O)n3C)cc1` was tested, and the IC50 was “Not Active”. With `O=C(O)c1cc(=O)c2ccccc2[nH]1` [TRANSTORINE] the IC50 was “Not Active”.

Each compound was assayed against T2, Tumor necrosis factor receptor superfamily member 16 (assay: Inhibition of [125I]- NGF binding to extracellular domain of p75 receptor).
Compound `Cn1c2ccc(NC(=O)c3ccccc3)cc2c(=O)n2nc(C(=O)O)cc12` has an IC50 of 0.2 µM. `COC(=O)c1c(C)sc2c(O)cc(C(=O)O)nc12` showed an IC50 of 2.3 µM. Work on `Nc1ccc2nc(C(=O)O)cc(O)c2c1` yielded an IC50 of 3.1 µM. `COC(=O)c1c(C)sc2c(O)cc(C(=O)Nn3cnnn3)nc12` gave an IC50 of 1.3 µM.

Reference: ChEMBL document CHEMBL1128178, “Kynurenic acid derivatives inhibit the binding of nerve growth factor (NGF) to the low-affinity p75 NGF receptor” (J Med Chem, 1995)
